# Reference: patent publication US9358300B2, “Transfection reagents” (LIFE TECHNOLOGIES CORPORATION, priority 1998, dated 2016)
# Tested on: Primary, passaged, normal human fibroblasts (NHFs)
# Experiment: Transfection of normal human fibroblasts with pCMV SPORT-β-gal DNA, β-gal activity
# Assay type: cell-based
# Details: 40 ng pCMV SPORT-β-gal DNA and 0.1 or 0.2 μl lipid per well, ND = no detectable activity
# Description: The cationic lipid reagents and DNA were diluted separately into 25µl aliquots of serum-free DMEM, containing 1% NEAA. For LIPOFECTAMINE® PLUS, 7 14 μl of PLUS reagent was added to the DNA, mixed, and incubated for 15 minutes at room temperature. The diluted DNA was combined with the diluted lipid and incubated at room temperature for at least 15 minutes to allow the DNA and the lipid to form complexes. Following this incubation the complexes were added directly into the culture medium dropwise and mixed by rocking the culture plate back and forth. The cells were further incubated at 37° C. for a total of 24 hours to allow expression of the lacZ transgene encoded by the reporter plasmid, pCMV SPORT-β-gal. At 24 hours post-transfection, the growth medium and transfection complexes were removed from the wells, and the cells in each well were rinsed briefly with 1 ml of D-PBS (Dulbecco's PBS, Life Technologies, Rockville, Md.). The cells in each well were lysed by the addition of 0.15 to 2.0 ml of […]. The plates were frozen at −80° C. for a minimum of 2 hours, and thawed at room temperature or 37° C. The thawed cell lysates were cleared by centrifugation and the supernatants were assayed for β-gal activity using the enzymatic substrate ONPG. The concentration of total protein in cell lysates was also determined using a Bradford assay (Bio-Rad Laboratories, Hercules Calif.). β-gal activity in transfected cell extracts was calculated against a standard curve and expressed as ng β-gal per surface area of tissue culture plate (ng/cm2) to reflect activity per transfection, or as ng β-gal per μg of total protein (ng/μg) to reflect specific activity.
# Primary, passaged, normal human fibroblasts (NHFs) were plated in 96-well plates at a density of 1.6×104 cells per well and transfected the following day. Cells in each well were transfected with 40 ng pCMV SPORT-β-gal DNA and 0.1 or 0.2 μl lipid.
# The DNA and lipid were diluted separately into 10 μl of DMEM. The DNA was either used alone or pre-mixed with PLUS, insulin, transferrin, or an integrin-targeting peptide prior to complexing with the lipid. After 15 minutes of complexing, the DNA-lipid was added to cells. Cells were assayed for p-gal activity as described above.
substance,measurement,setting,value
"N^1,N^4-dioleyl-N^1,N^4-di-[2-hydroxy-3-(N-spermine carboxamido)-aminopropyl]-diaminobutane [Compound of Formula VII]","ACTIVITY (β-gal), DNA and PLUS",DNA pre-mixed with PLUS Reagent,637.9 ng/βgal/cm^2
same,"ACTIVITY (β-gal), DNA and INSULIN",DNA pre-mixed with insulin,195.7 ng/βgal/cm^2
same,"ACTIVITY (β-gal), DNA and INTEGRIN-TARGETING PRPTIDE",DNA pre-mixed with integrin-targeting peptide,587.9 ng/βgal/cm^2
same,"ACTIVITY (β-gal), DNA and TRANSFERRIN",DNA pre-mixed with transferrin,21.7 ng/βgal/cm^2
same,"ACTIVITY (β-gal), DNA",DNA used alone,29.4 ng/βgal/cm^2
